Assay [1] has as its system acetic acid-induced writhes. In words: Writhing test (acetic acid). The conditions noted are these: Mus musculus, po, 0.5 h, read-out: Writh test: ED50 mg/kg. It counts as in vivo, ICR mice. As to the method: To examine the pain relief effect of the sulfamate derivative compounds, a writhing test was referring to Fischer, L. G. et al. (2008).
ICR mice (male, 24-28 g; Orient Bio, Korea) were habituated before test in test room for 1 hour. Animals were fasted for 2 hr before administration of compounds. […] All compounds were dissolved in a vehicle of 30% (v/v) PEG 400 or 20% (v/v) Tween 80. The control group was treated with the vehicle without compounds.
[…] Animals were habituated in the cage for 5 min. 5 min after habituation, the number of writhes (abdominal constriction) was counted for 15 minutes referring to Korzeniewska-Rybicka, I. et al. (1998) and compared with that of the control.

The test system of assay [2] is CFA-induced pain model. In words: Antiallodynic activity on Complete Freund's Adjuvant (CFA)-induced inflammatory pain model (von Frey). The format is in vivo, Sprague-Dawley rats. The conditions noted are these: Rattus norvegicus, ip. On the procedure: Male, Sprague-Dawley rats (200-220 g, Nara Bio, Korea) were habituated for 1 week before surgery and allowed free access to food and water throughout the experimentation. Room temperature and humidity were maintained at 24±2° C. and 50±10%, respectively.
CFA-induced inflammatory pain was induced by the procedure of Nagakura et al. (2003) and Gregory P. et al. (2010) with minor modifications. CFA (sigma, USA) was injected into the left plantar with a 100 ul volume under gaseous anesthesia with isoflurane and NO2 with a 4:4 flow ratio. Sham controls were injected with 100 ul of saline and preparation of the vehicle controls were identical to the group treated with compound, except for administration of vehicles without compound in the vehicle control group.
Tactile sensitivity (mechanical allodynia) was evaluated using von Frey monofilaments before and after treatment, and the animals were included in the study only if the withdrawal threshold value was less than 4 g. One week after surgery, CFA-infused animals (n=4˜6), sham-operated animals (n=12), and vehicle-operated animals (n=17) were tested for tactile sensitivity with von Frey monofilaments, with 3 trials for each animal. All animals were placed in a stainless steel mesh chamber and habituated for 30 min in the test cage. The tactile sensitivity for the ipsilateral hind paw was measured using the up-and-down method (Dixon, 1980) with seven von Frey monofilaments (0.4, 1, 2, 4, 6, 8, and 15 g) in 3 trials. The tactile sensitivity test was followed by Dixon's method (Dixon, 1980). The 50% paw withdrawal threshold for each paw was calculated using the following formula: [Xth] log=[vFr] log+ky where [vFr] is the force of the last von Frey used, k=0.2249 which is the average interval (in log units) between the von Frey monofilaments, and y is a value that depends upon the pattern of the withdrawal responses (Dixon, 1980).
The antiallodynic effect of the compound of Example was evaluated at the doses of 10, 30 and 60 mg/kg (n=4˜6), and were intraperitoneally administered in a volume of 5 ul/g by bodyweight in a vehicle of 30% (v/v) PEG. […]
The relative values compared to the sham (% control) were calculated and are shown in Table 4, which show an antiallodynic effect of the compound of examples in the CFA-induced pain model in rats.

Assay [3] relates to Vincristine-induced pain model. In words: Antiallodynic activity in the vincristine-induced pain model (von Frey). The following applies: rat, intraperitoneal. It counts as in vivo, Sprague-Dawley rats. On the procedure:
Male, Sprague-Dawley rats (300-320 g, Nara Bio, Korea) were habituated for 1 week before surgery and allowed free access to food and water throughout the experimentation. Room temperature and humidity were maintained at 24±2° C. and 50±10%, respectively.
The vincristine-induced pain model was established by the procedure of Natsuko et al. (2001) with minor modifications. Vincristine was intravenously infused continuously for 14 days using a mini-osmotic pump as follows: Vincristine sulfate solution (Hospira, Australia) was diluted with 0.9% saline to a final dose of 30 ug/kg. The pumps (Alzet Model 2002, USA) were filled with the vincristine solution and primed by incubation at 37° C. for 4 h before the infusion. Briefly, animals were put under gaseous anesthesia with isoflurane and NO with a 4:4 flow ratio. A catheter made from PE-60 tubing was inserted into an external jugular vein in the rat. Sham controls were prepared in the same manner, with the external jugular vein exposed, but not cut down. Preparation of the vehicle controls were identical to the group treated with compound, except for administration of vehicles without compound in the vehicle control group.
Tactile sensitivity (mechanical allodynia) was evaluated using von Frey monofilaments before and after treatment, and the animals were included in the study only if the withdrawal threshold value was less than 4 g. One week after surgery, vincristine-infused animals (n=6), sham-operated animals (n=12) and vehicle-operated (n=18) animals were tested for tactile sensitivity with von Frey monofilaments with 3 trials in each animal. All animals were placed in a stainless steel mesh chamber and habituated for 30 min in the test cage. The tactile sensitivity for the ipsilateral hind paw was measured using the up-and-down method (Dixon, 1980) with seven von Frey monofilaments (0.4, 1, 2, 4, 6, 8, and 15 g) in 3 trials. The tactile sensitivity test was followed by Dixon's method. The 50% paw withdrawal threshold for each paw was calculated using the following formula: [Xth] log=[vFr] log+ky where [vFr] is the force of the last von Frey used, k=0.2249 which is the average interval (in log units) between the von Frey monofilaments, and y is a value that depends upon the pattern of withdrawal responses (Dixon, 1980).
[…] The test was performed at the peak time of efficacy (0.5 hr) after compound administration.
The relative values compared to the sham (% control) were calculated and are shown in Table 11, which show an antiallodynic effect of the compound of examples in the vincristine-induced pain model in rats.

Assay [4] deals with Post operation-induced pain model. In words: Antiallodynic activity on post operative pain-induced pain model (von Frey). The format is in vivo, Sprague-Dawley rats. The following applies: Rattus norvegicus, ip, 0.5 h, read-out: Post Operation: ED50 mg/kg. As to the method:
Male Sprague-Dawley rats (Orient Bio, Korea), 300-320 g, total of 201 rats were used (details in Table 7). Rats were habituated at least 3 days before surgery and free access to food and water (room temperature and humidity were maintained at […] and 50±10%, respectively). The process of performing the post-operation model's surgery was adapted from Brennan et al (1996). At first, rats with allodynia (threshold valueless than 8 g) were excluded in Pre-von Frey Test. During the post-operation surgery, rats were anesthetized under gaseous anesthesia with 2% isoflurane. Rats were laid face down on a plate fixed at 37° C. to prevent against hypothermia. The ipsilateral plantar aspect (left side) of the hind paw was prepared in a sterile manner with a 10% povidone-iodine solution. A longitudinal incision (1 cm) (FIG. 2-A) was made with a blade (number 11) through the skin and fascia of the ipsilateral plantar aspect of the foot, starting from 0.5 cm below the proximal edge of the heel and extending toward the toes. Rats' plantar muscles were elevated and incised longitudinally (FIG. 2-B). After hemostasis with gentle pressure, the skin was opposed with 2 mattress sutures (4-0 Dafilon) (FIG. 2-C). The wound site was covered with a 10% povidone-iodine solution gauze and injected with antibiotics (gentamicin, 8 mg/kg, ip). The sutures were removed under halothane anesthesia approximately 30 hours later, at the end of post-operative day 1.
After 2-3 days of recovery, rats with a good response (threshold less than 4 g) in Pre-von Frey Test were selected. According to this response, we made three groups with each group having equal average responses: Group 1, post-operation and drug treated; Group 2, post-operation and vehicle treated; Group 3, no post-operation and vehicle treated. In this study, Group 3 was the sham control (positive) group. The group 2 was used to check for possible failures to generate post-operative pain.
For efficacy measure, the threshold value of group C was assigned 100% efficacy, and the percentage of the threshold values of group A compared to group C (for each different dose level) were calculated as the efficacies. Base on these efficacy values, ED50 was calculated using log fitting. If there was no clear ED50, then we marked the percent efficacy at the highest tested dose or larger than highest tested dose.
For pain threshold test, all animals were placed in a stainless steel meshed chamber and habituated for 30 min in the test box. The tactile sensitivity of the ipsilateral hind paw was measured using the up-and-down method (Dixon, 1980) with seven von Frey monofilaments (0.4, 1, 2, 4, 6, 8, and 15 g) using 3 trials. The 50% paw withdrawal threshold for each paw was calculated using the following formula: [Xth] log=[vFr] log+ky, where [vFr] is the force of the last von Frey filament used, k=0.2249 which is the average interval (in log units) between the von Frey monofilaments, y which is a value that depends upon the pattern of withdrawal responses, and Xth which is the threshold value (Dixon, 1980).
Drugs were dissolved 30% PEG400 for example 60, 0.9% saline for Pregabalin, 20% Tween80 for Tylenol, 0.9% saline for Topiramate. These vehicles were selected depending on the compound's solubility. Intraperitoneal injection (5 μl/g) was done for all drugs.
The relative values compared to the sham (% control) were calculated and shown in Table 8, which show an antiallodynic effect of the compound of examples on Post operation-induced pain model in rats.

Assay [5] deals with SNL model. As to the kind of experiment: Antiallodynic activity in the Chung model (SNL, Spinal Nerve Ligation; von Frey). It counts as in vivo, Sprague-Dawley rats. The following applies: Rattus norvegicus, po, 0.5 h, read-out: SNL model: effect (%) compared to control, rat, oral, 3.5 mg/kg administered, 0.5 h. On the procedure: Male Sprague-Dawley rats (200-220 g, Orient Bio, Korea) were habituated for 1 week before the experiment and allowed free access to food and water throughout the experimentation. Room temperature and humidity were maintained at 24±2° C. and 50±10%, respectively. The neuropathic surgery (SNL, Spinal Nerve Ligation) model was done as described in Kim and Chung (1992). Briefly, an animal was put under gaseous anesthesia with isoflurane and NO2 with a 4:4 flow ratio. The left lumbar spinal nerves L5 and L6 were isolated and tightly ligated with 4-0 silk thread. The wound was treated with a gentamicin antibiotic solution (4 mg/kg, 4 ul/g by bodyweight), and the wound muscle was closed with Catgut® chrome 4/0 thread and the skin was closed with Dafilon 4/0 thread. Sham controls were prepared in the same manner with the spinal nerves were exposed, but no ligated L5 and L6 nerves. Preparation of the vehicle controls were identical to the group treated with compound, except for administration of vehicles without compound in the vehicle control group.
Tactile sensitivity (mechanical allodynia) was evaluated using von Frey monofilaments before and after treatment and animals the animals were included in the study only if the withdrawal threshold value was less than 4 g. One week after surgery, SNL-operated animals (n=4˜6), sham-operated animals (n=4˜10) and vehicle-operated animals (n=4˜13) were tested for tactile sensitivity with von Frey monofilaments with 3 trials in each animal. All animals were placed in a stainless steel mesh chamber and habituated for 30 min in the test cage. The tactile sensitivity for ipsilateral hind paw was measured using the up-and-down method (Dixon, 1980) with seven von Frey monofilaments (0.4, 1, 2, 4, 6, 8, and 15 g) in 3 trials. The tactile sensitivity test was followed by Dixon's method (Dixon, 1980). The 50% paw withdrawal threshold for each paw was calculated using the following formula: [Xth] log=[vFr] log+ky where [vFr] is the force of the last von Frey used, k=0.2249 which is the average interval (in log units) between the von Frey monofilaments, and y is a value that depends upon the pattern of withdrawal responses (Dixon, 1980).
All animals were fasted for 18 h before the administration of the compounds. The antiallodynic effect of the compounds were evaluated at the various doses (n=5˜6), orally administered in a volume of 5 ul/g by bodyweight in a vehicle of 30% (v/v) PEG 400 (Example 7) or 20% (v/v) Tween 80 (Examples 5 and 6) or saline. […]
The relative values compared to the sham group (% control) were calculated and are shown in Table 5, which show an antiallodynic effect of the test compounds in the SNL model in rats.

With `CC1(C)Oc2ccccc2[C@@H](COS([NH-])(=O)=O)O1.[Na+]` [Example 59, Sodium (S)-(((2,2-dimethyl-4H-benzo[d][1,3]dioxin-4-yl)methoxy)sulfonyl)amide Trihydrate], the ED50 is 81.4 mg/kg in assay [1]; 20.2 mg/kg in assay [2] (0.5 h, read-out: CFA model: ED50 mg/kg); 2.6 mg/kg in assay [3] (ip, 0.5 h); 10.9 mg/kg in assay [4].

For the compound `CC1(C)Oc2ccccc2[C@@H](COS([NH-])(=O)=O)O1.[K+]` [Example 71, Potassium (S)-(((2,2-dimethyl-4H-benzo[d][1,3]dioxin-4-yl)methoxy)sulfonyl)amide], the response vs control in vivo at 25 mg/kg in assay [2] (read-out: CFA model: effect (%) compared to control) stood at 24.7%. For the same compound, the “Vincristine model: effect (%) compared to control” value in assay [3] (2.4 mg/kg administered, time not given) is “(96.2%)”. In addition, the response vs control in vivo at 3.5 mg/kg in assay [5] was found to be 15.9%.
